For orientation: Kd means the equilibrium constant for the complex coming apart.

The target in experiment [1] is T1, melibiose permease MelBSt (WT) (Salmonella enterica, UniProt P30878). As to the kind of experiment: ITC, […] NaCl, […] °C; [3H]raffinose transport in cells. More on the design: gene melB; WT MelBSt/CHis10. Format: binding. (In general: In ITC the heat of successive injections is recorded.)
For experiment [2], the target named is T1, melibiose permease MelBSt (WT). As to the kind of experiment: ITC, […] NaCl, […] °C. Set-up: gene melB; WT MelBSt/CHis10. The experiment is classed as binding.
The target is the same in experiment [3]. In words: α-NPG downhill transport in E. coli DW2 cells (p-nitrophenol release). The experiment is classed as cell-based. More on the design: gene melB; WT MelBSt/CHis10 expressed in E. coli DW2 cells.

Structures are written as SMILES.

T1 sequence (P30878 whole entry): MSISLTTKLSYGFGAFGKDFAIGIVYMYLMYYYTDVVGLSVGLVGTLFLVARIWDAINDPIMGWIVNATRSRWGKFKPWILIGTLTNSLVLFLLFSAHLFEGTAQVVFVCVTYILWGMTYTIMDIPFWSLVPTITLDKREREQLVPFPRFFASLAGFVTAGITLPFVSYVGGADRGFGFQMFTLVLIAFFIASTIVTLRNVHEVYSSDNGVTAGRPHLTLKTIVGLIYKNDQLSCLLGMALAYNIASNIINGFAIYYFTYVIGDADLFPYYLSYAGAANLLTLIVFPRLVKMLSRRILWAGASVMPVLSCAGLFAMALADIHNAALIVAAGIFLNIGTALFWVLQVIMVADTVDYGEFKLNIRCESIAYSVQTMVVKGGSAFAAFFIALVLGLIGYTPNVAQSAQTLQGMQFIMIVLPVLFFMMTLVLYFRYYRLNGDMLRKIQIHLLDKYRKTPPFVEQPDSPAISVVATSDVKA

In experiment [1], `OC[C@H]1O[C@H](OC[C@H]2O[C@H](O[C@]3(CO)O[C@H](CO)[C@@H](O)[C@@H]3O)[C@H](O)[C@@H](O)[C@@H]2O)[C@H](O)[C@@H](O)[C@H]1O` [raffinose, Raffinose] yielded a Kd of 3790 ± 530 µM.
`CO[C@H]1O[C@H](CO)[C@H](O)[C@H](O)[C@H]1O` [α-MG, methyl α-D-galactoside] showed a Kd in experiment [2] of 880 ± 40 µM.
Regarding `O=[N+]([O-])c1ccc(O[C@H]2O[C@H](CO)[C@H](O)[C@H](O)[C@H]2O)cc1` [α-NPG, p-Nitrophenyl α-D-galactoside], the “α-NPG downhill transport in E. coli DW2 cells (p-nitrophenol release)” value in experiment [3] is “both WT MelBSt and D59C uniport mutant mediated the translocation of α-NPG”.

These data come from paper PMC12851581, “Allosteric effects of the coupling cation in melibiose transporter MelB” (eLife, 2026).
